Assay results published in ChEMBL document CHEMBL5055685, “Discovery of the First Potent IDO1/IDO2 Dual Inhibitors: A Promising Strategy for Cancer Immunotherapy” (J Med Chem, 2021).
Activity calls are given as the source filed them. The calls are words filed in the database; no cut-off is given here.

Experiments:
[1] = Protein binding in monkey plasma by equilibrium dialysis by equilibrium dialysis; assay type: ADME, cell-free, Macaca mulatta; settings: rhesus monkey, read-out: PPB (converted)
[2] = target: Insulin receptor-related protein (Homo sapiens) (UniProt P14616); test: Inhibition of IRR (unknown origin) at 1 uM
[3] = target: MAP kinase-interacting serine/threonine-protein kinase 1 (Homo sapiens) (UniProt Q9BUB5); test: Inhibition of MNK1 (unknown origin) at 1 uM
[4] = target: Dual specificity tyrosine-phosphorylation-regulated kinase 2 (Homo sapiens) (UniProt Q92630); test: Inhibition of DYRK2 (unknown origin) at 1 uM
[5] = target: SRSF protein kinase 1 (Homo sapiens) (UniProt Q96SB4); test: Inhibition of SRPK1 (unknown origin) at 1 uM
[6] = Volume of distribution at steady state in Sprague-Dawley rat at 5 mg/kg, iv; assay type: ADME, organism-based; settings: in vivo, read-out: Vdss
[7] = target: Testis-specific serine/threonine-protein kinase 2 (Homo sapiens) (UniProt Q96PF2); test: Inhibition of TSSK2 (unknown origin) at 1 uM
[8] = target: Serine/threonine-protein kinase N2 (Homo sapiens) (UniProt Q16513); test: Inhibition of PKN2 (unknown origin) at 1 uM
[9] = target: Muscle, skeletal receptor tyrosine-protein kinase (Homo sapiens) (UniProt O15146); test: Inhibition of MUSK (unknown origin) at 1 uM
[10] = Protein binding in Sprague-Dawley rat plasma by equilibrium dialysis; assay type: ADME, cell-free; settings: read-out: PPB (converted)
[11] = target: Myosin-IIIb (Homo sapiens) (UniProt Q8WXR4); test: Inhibition of MYO3B (unknown origin) at 1 uM
[12] = target: Fibroblast growth factor receptor 4 (Homo sapiens) (UniProt P22455); test: Inhibition of FGFR4 (unknown origin) at 1 uM
[13] = target: Maternal embryonic leucine zipper kinase (Homo sapiens) (UniProt Q14680); test: Inhibition of MELK (unknown origin) at 1 uM
[14] = target: Homeodomain-interacting protein kinase 3 (Homo sapiens) (UniProt Q9H422); test: Inhibition of HIPK3 (unknown origin) at 1 uM
[15] = target: ALK tyrosine kinase receptor (Homo sapiens) (UniProt Q9UM73); test: Inhibition of ALK (unknown origin) at 1 uM
[16] = target: Casein kinase II subunit alpha (Homo sapiens) (UniProt P68400); test: Inhibition of CK2A (unknown origin) at 1 uM
[17] = target: Calcium/calmodulin-dependent protein kinase type II subunit gamma (Homo sapiens) (UniProt Q13555); test: Inhibition of CAMK2G (unknown origin) at 1 uM
[18] = target: Protein kinase C delta type (Homo sapiens) (UniProt Q05655); test: Inhibition of PKCdelta (unknown origin)at 1 uM
HCT-116 = test: Antitumor immunity in BALB/c mouse xenografted with human HCT-116 cells assessed as increase in TNFalpha in serum by […]; assay type: functional, cell-based
[19] = Clearance in dog liver microsomes; assay type: ADME, Canis lupus familiaris, Microsome; settings: read-out: CLH
[20] = target: Serine/threonine-protein kinase Sgk3 (Homo sapiens) (UniProt Q96BR1); test: Inhibition of SGK3 (unknown origin) at 1 uM
[21] = target: Mast/stem cell growth factor receptor Kit (Homo sapiens) (UniProt P10721); test: Inhibition of c-KIT (unknown origin) at 1 uM
[22] = target: Serine/threonine-protein kinase PLK4 (Homo sapiens) (UniProt O00444); test: Inhibition of PLK4 (unknown origin) at 1 uM
[23] = target: CDK7/Cyclin H/MNAT1 (Homo sapiens) (UniProt P51946+P50613+P51948); test: Inhibition of CDK7/cyclin-H/MNAT1 (unknown origin) at 1 uM; assay type: protein-complex assay
[24] = Half life in Sprague-Dawley rat at 5 mg/kg, iv; assay type: ADME, organism-based; settings: in vivo
[25] = target: Mitogen-activated protein kinase kinase kinase kinase 2 (Homo sapiens) (UniProt Q12851); test: Inhibition of GCK (unknown origin) at 1 uM
HeLa = test: Cytotoxicity against human HeLa cells assessed as reduction in cell viability at 1 to 10 uM by CCK8 assay; assay type: functional, cell-based; settings: dose 1-10 µM
[26] = target: SRSF protein kinase 3 (Homo sapiens) (UniProt Q9UPE1); test: Inhibition of MSSK1 (unknown origin) at 1 uM
[27] = target: Tyrosine-protein kinase FRK (Homo sapiens) (UniProt P42685); test: Inhibition of FRK (unknown origin) at 1 uM
[28] = target: Serine/threonine-protein kinase B-raf (Homo sapiens) (UniProt P15056); test: Inhibition of BRAF (unknown origin) at 1 uM
[29] = target: Dual specificity protein kinase CLK3 (Homo sapiens) (UniProt P49761); test: Inhibition of CLK3 (unknown origin) at 1 uM
[30] = target: Inactive tyrosine-protein kinase PEAK1 (Homo sapiens) (UniProt Q9H792); test: Inhibition of PEAK1 (unknown origin) at 1 uM
[31] = target: Protein-tyrosine kinase 6 (Homo sapiens) (UniProt Q13882); test: Inhibition of BRK (unknown origin) at 1 uM
[32] = target: Mitogen-activated protein kinase kinase kinase 19 (Homo sapiens) (UniProt Q56UN5); test: Inhibition of YSK4 (unknown origin) at 1 uM
[33] = target: Leucine-rich repeat serine/threonine-protein kinase 2 (Homo sapiens) (UniProt Q5S007); test: Inhibition of LRRK2 (unknown origin) at 1 uM
[34] = target: Inhibitor of nuclear factor kappa-B kinase subunit beta (Homo sapiens) (UniProt O14920); test: Inhibition of IKKbeta (unknown origin) at 1 uM
[35] = target: Serine/threonine-protein kinase/endoribonuclease IRE2 (Homo sapiens) (UniProt Q76MJ5); test: Inhibition of ERN2 (unknown origin) at 1 uM
[36] = Protein binding in human plasma by equilibrium dialysis; assay type: ADME, cell-free; settings: read-out: PPB (converted)
[37] = Protein binding in Beagle dog plasma assessed as fraction unbound by equilibrium dialysis; assay type: ADME, cell-free, Canis lupus familiaris
[38] = Efflux ratio of apparent permeability across basolateral to apical over apical to basolateral side in human Caco-2 cells; assay type: ADME, cell-based
[39] = Metabolic stability in rat liver microsomes assessed as rate constant; assay type: ADME, Microsome
[40] = target: Interleukin-1 receptor-associated kinase 4 (Homo sapiens) (UniProt Q9NWZ3); test: Inhibition of IRAK4 (unknown origin) at 1 uM
[41] = target: Serine/threonine-protein kinase ULK1 (Homo sapiens) (UniProt O75385); test: Inhibition of ULK1 (unknown origin) at 1 uM
[42] = target: Serine/threonine-protein kinase ULK2 (Homo sapiens) (UniProt Q8IYT8); test: Inhibition of ULK2 (unknown origin) at 1 uM
[43] = target: Ribosomal protein S6 kinase alpha-2 (Homo sapiens) (UniProt Q15349); test: Inhibition of RSK3 (unknown origin) at 1 uM
[44] = target: STE20-like serine/threonine-protein kinase (Homo sapiens) (UniProt Q9H2G2); test: Inhibition of SLK (unknown origin) at 1 uM

Mast/stem cell growth factor receptor Kit (Homo sapiens), sequence (P10721 whole entry): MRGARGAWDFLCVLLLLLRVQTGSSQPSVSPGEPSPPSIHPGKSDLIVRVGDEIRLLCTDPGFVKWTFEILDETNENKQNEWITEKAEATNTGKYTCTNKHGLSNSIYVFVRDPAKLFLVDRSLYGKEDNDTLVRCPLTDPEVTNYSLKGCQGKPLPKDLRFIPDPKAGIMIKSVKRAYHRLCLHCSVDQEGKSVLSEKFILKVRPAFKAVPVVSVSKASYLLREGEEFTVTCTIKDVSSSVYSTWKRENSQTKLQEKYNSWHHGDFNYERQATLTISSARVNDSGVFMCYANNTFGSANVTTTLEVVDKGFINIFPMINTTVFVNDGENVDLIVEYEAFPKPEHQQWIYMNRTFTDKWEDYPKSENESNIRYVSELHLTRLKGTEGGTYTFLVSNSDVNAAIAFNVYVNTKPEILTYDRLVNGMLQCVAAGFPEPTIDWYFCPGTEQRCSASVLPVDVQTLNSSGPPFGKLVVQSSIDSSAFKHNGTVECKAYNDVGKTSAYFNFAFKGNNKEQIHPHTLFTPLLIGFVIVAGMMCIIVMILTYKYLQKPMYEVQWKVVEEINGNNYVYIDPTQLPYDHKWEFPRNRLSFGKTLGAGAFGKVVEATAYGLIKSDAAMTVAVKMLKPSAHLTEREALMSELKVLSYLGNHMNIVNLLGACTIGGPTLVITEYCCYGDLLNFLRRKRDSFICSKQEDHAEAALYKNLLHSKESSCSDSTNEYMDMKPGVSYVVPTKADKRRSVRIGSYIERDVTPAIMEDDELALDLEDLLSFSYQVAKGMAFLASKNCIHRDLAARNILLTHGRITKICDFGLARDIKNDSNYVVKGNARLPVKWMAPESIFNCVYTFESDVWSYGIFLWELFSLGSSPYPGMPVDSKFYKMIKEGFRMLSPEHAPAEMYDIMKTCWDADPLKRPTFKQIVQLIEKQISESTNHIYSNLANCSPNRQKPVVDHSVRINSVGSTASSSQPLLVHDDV
Insulin receptor-related protein (Homo sapiens), sequence (P14616 27-742 limits assumed): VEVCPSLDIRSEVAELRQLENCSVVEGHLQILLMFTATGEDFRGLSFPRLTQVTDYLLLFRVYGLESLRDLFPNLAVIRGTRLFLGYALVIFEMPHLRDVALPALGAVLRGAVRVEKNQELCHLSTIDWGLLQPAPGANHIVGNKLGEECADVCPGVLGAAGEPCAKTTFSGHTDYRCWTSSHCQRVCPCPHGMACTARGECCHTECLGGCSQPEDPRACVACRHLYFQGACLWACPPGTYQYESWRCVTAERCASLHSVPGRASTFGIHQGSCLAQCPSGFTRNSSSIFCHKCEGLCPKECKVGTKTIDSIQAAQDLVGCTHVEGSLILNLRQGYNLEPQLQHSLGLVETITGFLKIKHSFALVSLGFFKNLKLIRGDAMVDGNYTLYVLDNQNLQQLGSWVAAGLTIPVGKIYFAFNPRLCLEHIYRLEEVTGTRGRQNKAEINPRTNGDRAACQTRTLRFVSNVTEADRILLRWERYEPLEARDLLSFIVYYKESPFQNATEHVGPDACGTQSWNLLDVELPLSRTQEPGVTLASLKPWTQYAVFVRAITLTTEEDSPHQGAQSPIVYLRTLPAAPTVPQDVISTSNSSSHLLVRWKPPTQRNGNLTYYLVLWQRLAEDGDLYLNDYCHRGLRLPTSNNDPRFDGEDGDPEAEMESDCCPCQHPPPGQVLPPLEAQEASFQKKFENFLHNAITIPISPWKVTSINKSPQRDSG
Insulin receptor-related protein (Homo sapiens), sequence (P14616 747-1297 limits assumed): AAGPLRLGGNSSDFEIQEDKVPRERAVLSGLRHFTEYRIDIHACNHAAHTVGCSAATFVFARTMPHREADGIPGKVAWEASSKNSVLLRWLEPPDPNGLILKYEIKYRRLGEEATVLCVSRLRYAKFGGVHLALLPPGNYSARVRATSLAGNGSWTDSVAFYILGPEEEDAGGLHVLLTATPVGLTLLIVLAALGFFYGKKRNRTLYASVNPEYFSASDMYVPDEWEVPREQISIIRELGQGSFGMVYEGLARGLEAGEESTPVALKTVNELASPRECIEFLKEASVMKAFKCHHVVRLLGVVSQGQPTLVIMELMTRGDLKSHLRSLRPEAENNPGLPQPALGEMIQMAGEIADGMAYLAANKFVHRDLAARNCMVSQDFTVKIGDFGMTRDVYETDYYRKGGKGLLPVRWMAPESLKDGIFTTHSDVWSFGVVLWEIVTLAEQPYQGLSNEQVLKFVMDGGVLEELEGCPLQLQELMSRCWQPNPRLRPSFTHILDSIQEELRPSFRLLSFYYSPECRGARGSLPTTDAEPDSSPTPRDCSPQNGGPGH
Muscle, skeletal receptor tyrosine-protein kinase (Homo sapiens), sequence (O15146 whole entry): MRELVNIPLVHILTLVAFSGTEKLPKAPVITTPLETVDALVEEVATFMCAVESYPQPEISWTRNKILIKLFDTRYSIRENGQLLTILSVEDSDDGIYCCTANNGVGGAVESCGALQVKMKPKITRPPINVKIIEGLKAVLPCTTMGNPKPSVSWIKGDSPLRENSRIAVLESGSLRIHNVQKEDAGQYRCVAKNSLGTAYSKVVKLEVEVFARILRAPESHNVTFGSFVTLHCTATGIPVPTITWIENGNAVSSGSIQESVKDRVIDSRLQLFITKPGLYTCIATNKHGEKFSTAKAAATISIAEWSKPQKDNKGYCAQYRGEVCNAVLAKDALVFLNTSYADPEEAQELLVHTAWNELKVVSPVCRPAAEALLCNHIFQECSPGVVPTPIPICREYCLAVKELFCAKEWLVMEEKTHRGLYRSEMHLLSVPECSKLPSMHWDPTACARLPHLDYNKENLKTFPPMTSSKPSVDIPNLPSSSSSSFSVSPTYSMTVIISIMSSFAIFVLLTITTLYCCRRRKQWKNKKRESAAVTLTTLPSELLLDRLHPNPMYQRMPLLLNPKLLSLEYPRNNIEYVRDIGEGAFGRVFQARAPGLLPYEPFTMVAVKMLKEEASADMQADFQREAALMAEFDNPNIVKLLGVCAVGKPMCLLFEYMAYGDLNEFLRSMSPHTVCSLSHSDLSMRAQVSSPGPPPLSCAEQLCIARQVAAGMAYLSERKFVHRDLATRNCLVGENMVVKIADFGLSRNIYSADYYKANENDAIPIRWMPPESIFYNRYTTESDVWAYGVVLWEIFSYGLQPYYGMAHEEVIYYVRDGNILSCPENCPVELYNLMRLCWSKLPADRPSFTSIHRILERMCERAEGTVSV
Testis-specific serine/threonine-protein kinase 2 (Homo sapiens), sequence (Q96PF2 whole entry): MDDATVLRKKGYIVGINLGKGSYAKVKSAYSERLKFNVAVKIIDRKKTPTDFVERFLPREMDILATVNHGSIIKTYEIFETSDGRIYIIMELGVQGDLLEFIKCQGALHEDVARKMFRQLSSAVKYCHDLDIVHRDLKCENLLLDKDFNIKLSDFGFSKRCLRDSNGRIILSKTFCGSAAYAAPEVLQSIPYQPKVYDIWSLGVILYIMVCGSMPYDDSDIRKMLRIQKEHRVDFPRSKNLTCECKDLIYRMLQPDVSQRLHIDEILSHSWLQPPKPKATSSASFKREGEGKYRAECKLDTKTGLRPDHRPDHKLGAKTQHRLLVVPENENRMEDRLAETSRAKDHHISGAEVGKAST
SRSF protein kinase 1 (Homo sapiens), sequence (Q96SB4 whole entry): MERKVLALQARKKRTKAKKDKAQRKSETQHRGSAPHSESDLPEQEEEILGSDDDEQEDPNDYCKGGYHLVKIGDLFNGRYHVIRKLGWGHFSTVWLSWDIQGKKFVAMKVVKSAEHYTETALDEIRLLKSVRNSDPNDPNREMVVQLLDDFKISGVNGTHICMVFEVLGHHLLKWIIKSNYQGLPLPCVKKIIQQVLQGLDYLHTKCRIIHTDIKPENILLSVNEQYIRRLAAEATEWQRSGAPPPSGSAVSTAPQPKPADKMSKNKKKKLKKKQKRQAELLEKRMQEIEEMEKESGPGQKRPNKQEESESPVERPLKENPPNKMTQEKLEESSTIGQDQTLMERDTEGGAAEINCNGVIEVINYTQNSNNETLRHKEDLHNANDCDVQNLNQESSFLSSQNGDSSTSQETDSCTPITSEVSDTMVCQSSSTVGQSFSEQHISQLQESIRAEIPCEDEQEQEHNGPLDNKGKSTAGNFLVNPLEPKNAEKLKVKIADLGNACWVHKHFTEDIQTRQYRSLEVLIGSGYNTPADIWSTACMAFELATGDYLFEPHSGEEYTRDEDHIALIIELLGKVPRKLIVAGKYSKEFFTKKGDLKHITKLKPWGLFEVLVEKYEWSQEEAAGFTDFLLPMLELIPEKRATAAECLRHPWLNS
Fibroblast growth factor receptor 4 (Homo sapiens), sequence (P22455 22-802 limits assumed): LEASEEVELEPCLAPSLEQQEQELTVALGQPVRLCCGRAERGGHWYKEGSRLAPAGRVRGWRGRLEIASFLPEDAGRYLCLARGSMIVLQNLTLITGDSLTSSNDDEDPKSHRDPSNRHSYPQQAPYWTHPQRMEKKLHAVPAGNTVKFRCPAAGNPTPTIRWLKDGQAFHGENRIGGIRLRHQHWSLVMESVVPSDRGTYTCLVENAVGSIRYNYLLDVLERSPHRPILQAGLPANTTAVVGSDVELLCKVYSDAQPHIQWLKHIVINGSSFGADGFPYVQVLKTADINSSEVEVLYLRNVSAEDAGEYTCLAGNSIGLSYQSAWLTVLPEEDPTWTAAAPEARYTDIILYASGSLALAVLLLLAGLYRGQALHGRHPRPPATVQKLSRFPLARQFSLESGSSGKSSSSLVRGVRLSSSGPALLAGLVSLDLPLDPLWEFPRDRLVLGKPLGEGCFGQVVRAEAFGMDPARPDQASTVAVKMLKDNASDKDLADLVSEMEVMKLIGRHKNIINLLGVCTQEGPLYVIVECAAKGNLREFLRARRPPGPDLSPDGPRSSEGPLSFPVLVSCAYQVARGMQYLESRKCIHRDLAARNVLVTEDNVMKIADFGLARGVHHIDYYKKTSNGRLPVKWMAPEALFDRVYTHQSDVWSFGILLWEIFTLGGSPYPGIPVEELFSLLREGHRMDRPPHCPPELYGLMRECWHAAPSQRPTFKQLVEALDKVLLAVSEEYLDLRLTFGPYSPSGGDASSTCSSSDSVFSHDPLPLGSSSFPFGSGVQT

## OCCOCc1cn(CCNc2nonc2/C(=N/O)Nc2ccc(F)c(Br)c2)nn1
[1]
  fraction unbound: 0.0763
[2]
  inhibition: inactive
[3]
  inhibition: inactive
[4]
  inhibition: inactive
[5]
  inhibition: inactive
[6]
  Vd: 0.88 L/kg
[7]
  inhibition: inactive
[8]
  inhibition: inactive
[9]
  inhibition: inactive
[10]
  fraction unbound: 0.0672
[11]
  inhibition: inactive
[12]
  inhibition: inactive
[13]
  inhibition: inactive
[14]
  inhibition: inactive
[15]
  inhibition: inactive
[16]
  inhibition: inactive
[17]
  inhibition: inactive
[18]
  inhibition: inactive
HCT-116
  Activity: Active
[19]
  microsomal CLint: 245 µL/min/mg
[20]
  inhibition: inactive
[21]
  inhibition: inactive
[22]
  inhibition: inactive
[23]
  inhibition: inactive
[24]
  half-life: 36.6 min
[25]
  inhibition: inactive
HeLa
  Activity: Active
[26]
  inhibition: inactive
[27]
  inhibition: inactive
[28]
  inhibition: inactive
[29]
  inhibition: inactive
[30]
  inhibition: inactive
[31]
  inhibition: inactive
[32]
  inhibition: inactive
[33]
  inhibition: inactive
[34]
  inhibition: inactive
[35]
  inhibition: inactive
[36]
  fraction unbound: 0.0411
[37]
  fraction unbound: 0.0498
[38]
  efflux ratio: 6.4
[39]
  k el: 0.000545 s⁻¹
[40]
  inhibition: inactive
[41]
  inhibition: inactive
[42]
  inhibition: inactive
[43]
  inhibition: inactive
[44]
  inhibition: inactive
